How the values were obtained:
EGFR [1] = target: EGFR (UniProt P00533)
EGFR [2] = target: EGFR (UniProt P00533); remark: listed apart in the source

Sequence of EGFR (P00533 whole entry, looked up): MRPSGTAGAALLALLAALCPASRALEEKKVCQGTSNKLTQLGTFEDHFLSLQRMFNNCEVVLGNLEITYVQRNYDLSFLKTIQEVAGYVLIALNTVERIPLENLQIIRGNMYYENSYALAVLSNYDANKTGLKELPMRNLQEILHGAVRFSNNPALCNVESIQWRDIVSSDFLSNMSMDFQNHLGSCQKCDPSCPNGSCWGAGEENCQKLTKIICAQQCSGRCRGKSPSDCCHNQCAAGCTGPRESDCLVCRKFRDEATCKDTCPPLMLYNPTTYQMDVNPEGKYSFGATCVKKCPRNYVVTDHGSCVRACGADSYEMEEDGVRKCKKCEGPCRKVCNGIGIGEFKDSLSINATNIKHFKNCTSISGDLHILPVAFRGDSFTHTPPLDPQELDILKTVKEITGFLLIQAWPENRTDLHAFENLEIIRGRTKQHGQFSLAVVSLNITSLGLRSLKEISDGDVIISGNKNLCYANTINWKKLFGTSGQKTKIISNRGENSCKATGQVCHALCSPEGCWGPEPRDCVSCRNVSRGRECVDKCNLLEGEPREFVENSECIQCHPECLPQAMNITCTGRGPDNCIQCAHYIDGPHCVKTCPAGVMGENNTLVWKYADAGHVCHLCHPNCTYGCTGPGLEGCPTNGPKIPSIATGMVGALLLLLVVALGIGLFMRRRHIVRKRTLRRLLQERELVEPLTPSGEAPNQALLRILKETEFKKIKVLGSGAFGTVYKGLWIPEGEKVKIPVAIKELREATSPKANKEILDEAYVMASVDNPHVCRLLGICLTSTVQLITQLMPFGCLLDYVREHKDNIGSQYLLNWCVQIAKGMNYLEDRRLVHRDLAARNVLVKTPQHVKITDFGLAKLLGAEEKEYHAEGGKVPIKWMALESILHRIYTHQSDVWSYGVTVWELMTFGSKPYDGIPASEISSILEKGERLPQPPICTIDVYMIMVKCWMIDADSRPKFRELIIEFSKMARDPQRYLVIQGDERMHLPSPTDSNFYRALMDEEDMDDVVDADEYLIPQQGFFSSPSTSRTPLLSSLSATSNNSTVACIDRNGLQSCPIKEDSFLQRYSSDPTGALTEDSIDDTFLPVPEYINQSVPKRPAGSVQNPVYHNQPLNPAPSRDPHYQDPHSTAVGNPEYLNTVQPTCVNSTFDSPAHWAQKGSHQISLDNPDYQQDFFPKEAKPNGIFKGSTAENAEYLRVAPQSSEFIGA

| Compound | IC50 (EGFR [1]) [µM] | Ki (EGFR [2]) [µM] | IC50 (EGFR [2]) [µM] |
| --- | --- | --- | --- |
| N#CC(C#N)=C(O)c1cc(O)c(O)c(O)c1 | 35 | – | – |
| N#CC(C#N)=Cc1cc(O)c(O)c(O)c1 | 15 | 1 | – |
| N#C/C(=C\c1ccc([N+](=O)[O-])cc1)C(=O)O | – | 1300 | – |
| COc1cc(C=C(C#N)C#N)cc(O)c1O | 20 | – | – |
| O=C(O)/C=C/c1cc(O)ccc1O | – | – | 4.4 |
| N#CC(C#N)=Cc1cc(O)cc(O)c1 | 160 | 10 | – |
| N#C/C(=C\c1ccc(O)c(O)c1)C(=O)O | 400 | – | – |
| N#CC(C#N)=C(N)/C(C#N)=C/c1ccc(O)c(O)c1 | 1.8 | – | – |
| N#C/C(=C\c1ccc(O)c(O)c1)C(N)=O | 4 | – | – |
